In US20160206688A1, “METHODS FOR TREATING BACTEREMIA AND OSTEOMYELITIS USING ORITAVANCIN” (THE MEDICINES COMPANY, priority 2013, published 2016):
Values after ≈ are worked out from the molar mass of the structure shown. Where two headings read alike, the source gives them in different places.

Tests used:
Test in all cases: Broth microdilution MIC, European bacteraemia isolates 2010-2012
[1] = system: Coagulase-negative staphylococci; assay type: cell-based, coagulase-negative staphylococci (CoNS); conditions: for inhibition at 0.06 µg/mL: at 0.06 mg/L; for inhibition at 0.12 µg/mL: at 0.12 mg/L
Method: (§1) A total of 2,904 clinical strains responsible for documented bacteremia among unique hospitalized patients in 38 hospitals in 11 European Union countries. Israel, Russia, Turkey and Ukraine were included in this study (2010-2012). Isolates were submitted to a central monitoring laboratory (JMI Laboratories, North Liberty. Iowa. USA), following previously established protocols. Bacterial species identification was performed by using an automated system (Vitek®2; bioMèrieux, Hazelwood, Mo., USA) or conventional biochemical algorithms, as required.
(§2) Isolates were tested for susceptibility by broth microdilution methods following the Clinical and Laboratory Standards Institute (CLSI; M07-A9, 2012) document. Susceptibility testing was performed in cation-adjusted Mueller-Hinton broth (CA-MHB) using dry-form panels manufactured by Thermo Fisher Scientific, formerly TREK Diagnostics Systems/Sensititre (Cleveland. Ohio, USA). These panels provide results equivalent to the CLSI-approved broth microdilution method supplemented with 0.002% polysorbate-80.
(§3) Quality assurance was performed by concurrent testing of CLSI-recommended (M100-S23, 2013) strains: E. faecalis ATCC 29212 and S. aureus ATCC 29213. Interpretation of comparator MIC results was in accordance with published CLSI (M100-S23) and European Committee on Antimicrobial Susceptibility Testing (EUCAST, 2013) criteria.

E. faecium = assay type: cell-based, Enterococcus faecium
Method: as §1, §2, §3

[2] = system: staphylococcal clinical isolates; assay type: cell-based, staphylococci
Method: as §1, §2, §3

[3] = read-out: cumulative % inhibited at MIC, CoNS, Methicillin-resistant (509)
[4] = read-out: cumulative % inhibited at MIC, CoNS, Methicillin-susceptible (137)
[5] = E. faecium (315), at ≦0.008 mg/L
[6] = E. faecium, VanA-phenotype (53), at ≦0.008 mg/L
[7] = E. faecium, Vancomycin-susceptible (257), at ≦0.008 mg/L
[8] = Enterococcus faecium, Table 1, E. faecium (315)
[9] = Enterococcus faecium, Table 1, E. faecium, VanA-phenotype (53)
[10] = Enterococcus faecium, Table 1, E. faecium, Vancomycin-susceptible (257)
[11] = Enterococcus faecium, Table 2, E. faecium Vancomycin-resistant (VanA-phenotype) (153)
[12] = Enterococcus faecium, Table 2, E. faecium Vancomycin-susceptible (257)
[13] = collection of staphylococcal clinical isolates, regardless of the methicillin susceptibility pattern

CN[C@H](CC(C)C)C(=O)N[C@H]1C(=O)N[C@@H](CC(N)=O)C(=O)N[C@H]2C(=O)N[C@H]3C(=O)N[C@H](C(=O)N[C@H](C(=O)O)c4cc(O)cc(O)c4-c4cc3ccc4O)[C@H](O[C@H]3C[C@](C)(N)[C@@H](O)[C@H](C)O3)c3ccc(c(Cl)c3)Oc3cc2cc(c3O[C@@H]2O[C@H](CO)[C@@H](O)[C@H](O)[C@H]2O[C@H]2C[C@](C)(NCc3ccc(-c4ccc(Cl)cc4)cc3)[C@@H](O)[C@H](C)O2)Oc2ccc(cc2Cl)[C@H]1O [Oritavancin, N-(4-(4-chlorophenyl)benzyl)A82846B]
inhibition at 0.06 µg/mL [1, 3]: 92.7%
inhibition at 0.12 µg/mL [1, 3]: 99.2%
inhibition at 0.25 µg/mL ([1]; read-out: cumulative % inhibited at MIC, CoNS, Methicillin-resistant (509), at 0.25 mg/L): 100%
inhibition at 0.015 µg/mL ([1]; read-out: cumulative % inhibited at MIC, CoNS, Methicillin-susceptible (137), at 0.015 mg/L): 47.5%
inhibition at 0.03 µg/mL ([1]; read-out: cumulative % inhibited at MIC, CoNS, Methicillin-susceptible (137), at 0.03 mg/L): 83.9%
inhibition at 0.06 µg/mL [1, 4]: 99.3%
inhibition at 0.12 µg/mL [1, 4]: 100%
Number inhibited at MIC (E. faecium; E. faecium (315), at 0.015 mg/L): 25
Number inhibited at MIC (E. faecium; E. faecium (315), at 0.03 mg/L): 12
Number inhibited at MIC (E. faecium; E. faecium (315), at 0.06 mg/L): 6
Number inhibited at MIC (E. faecium; E. faecium (315), at 0.12 mg/L): 3
Number inhibited at MIC (E. faecium; [5]): 269
cumulative % inhibited at MIC (E. faecium; [5]): 85.4%
Number inhibited at MIC (E. faecium; E. faecium, VanA-phenotype (53), at 0.015 mg/L): 19
Number inhibited at MIC (E. faecium; E. faecium, VanA-phenotype (53), at 0.03 mg/L): 12
Number inhibited at MIC (E. faecium; E. faecium, VanA-phenotype (53), at 0.06 mg/L): 6
Number inhibited at MIC (E. faecium; E. faecium, VanA-phenotype (53), at 0.12 mg/L): 3
Number inhibited at MIC (E. faecium; [6]): 13
cumulative % inhibited at MIC (E. faecium; [6]): 24.5%
Number inhibited at MIC (E. faecium; E. faecium, Vancomycin-susceptible (257), at 0.015 mg/L): 6
Number inhibited at MIC (E. faecium; [7]): 251
cumulative % inhibited at MIC (E. faecium; [7]): 97.7%
MIC50 (E. faecium; [8]): ≤ 0.008 µg/mL
MIC90 (E. faecium; [8]): 0.015 µg/mL (≈ 8.37 nM)
MIC50 (E. faecium; [9]): 0.015 µg/mL (≈ 8.37 nM)
MIC90 (E. faecium; [9]): 0.06 µg/mL (≈ 33.5 nM)
MIC50 (E. faecium; [10]): ≤ 0.008 µg/mL
MIC90 (E. faecium; [10]): ≤ 0.008 µg/mL
MIC50 (E. faecium; [11]): 0.015 µg/mL (≈ 8.37 nM)
MIC90 (E. faecium; [11]): 0.06 µg/mL (≈ 33.5 nM)
MIC50 (E. faecium; [12]): ≤ 0.0081 µg/mL
MIC90 (E. faecium; [12]): ≤ 0.008 µg/mL
MIC (E. faecium; Enterococcus faecium, read-out: MIC values): ≤ 0.008 µg/mL
inhibition at 0.015 µg/mL (E. faecium; Enterococcus faecium, read-out: cumulative % inhibited at MIC, E. faecium (315), at 0.015 mg/L): 93.3%
inhibition at 0.03 µg/mL (E. faecium; Enterococcus faecium, read-out: cumulative % inhibited at MIC, E. faecium (315), at 0.03 mg/L): 97.1%
inhibition at 0.06 µg/mL (E. faecium; Enterococcus faecium, read-out: cumulative % inhibited at MIC, E. faecium (315), at 0.06 mg/L): 99.1%
inhibition at 0.12 µg/mL (E. faecium; Enterococcus faecium, read-out: cumulative % inhibited at MIC, E. faecium (315), at 0.12 mg/L): 100%
inhibition at 0.015 µg/mL (E. faecium; Enterococcus faecium, read-out: cumulative % inhibited at MIC, E. faecium, VanA-phenotype (53), at 0.015 mg/L): 60.4%
inhibition at 0.03 µg/mL (E. faecium; Enterococcus faecium, read-out: cumulative % inhibited at MIC, E. faecium, VanA-phenotype (53), at 0.03 mg/L): 83%
inhibition at 0.06 µg/mL (E. faecium; Enterococcus faecium, read-out: cumulative % inhibited at MIC, E. faecium, VanA-phenotype (53), at 0.06 mg/L): 94.3%
inhibition at 0.12 µg/mL (E. faecium; Enterococcus faecium, read-out: cumulative % inhibited at MIC, E. faecium, VanA-phenotype (53), at 0.12 mg/L): 100%
inhibition at 0.015 µg/mL (E. faecium; Enterococcus faecium, read-out: cumulative % inhibited at MIC, E. faecium, Vancomycin-susceptible (257), at 0.015 mg/L): 100%
MIC Range (E. faecium; Table 2, E. faecium Vancomycin-resistant (VanA-phenotype) (153)): ≦0.008-0.12 mg/L
MIC Range (E. faecium; Table 2, E. faecium Vancomycin-susceptible (257)): ≦0.008-0.015 mg/L
MIC50 and MIC90 lower than daptomycin and linezolid (E. faecium; VanA-phenotype E. faecium): 32- to 64 fold
concentration inhibiting all strains (E. faecium; VanA-phenotype E. faecium strains): ≤ 0.12 mg/L
concentration inhibiting all strains (E. faecium; all E. faecium, including resistant subsets): ≤ 0.12 mg/L
activity relative to wild-type vancomycin-susceptible population (E. faecium; vancomycin-resistant (VanA-type) E. faecium strains): at least two-fold less active
concentration inhibiting all strains ([2]; all staphylococci, including resistant subsets): ≤ 0.25 mg/L
MIC50 [2, 13]: 0.03 µg/mL (≈ 16.7 nM)
MICE [2, 13]: 0.06 mg/L
effect of methicillin-resistance phenotype on in vitro activity ([2]; staphylococci): not affected
